The results in this text go back to patent US11903983B2, “Composition comprising new Lactobacillus salivarius strains and method for the prevention and treatment of otitis and upper respiratory infections” (priority 2018, dated 2024).

Values after ≈ are worked out from the molar mass of the structure shown. Some results are limits rather than exact numbers.

One test deals with L. salivarius PS7. Briefly: Antibiogram: MIC by VetMIC microdilution and E-test.
Details: not given
The class given is cell-based, Lactobacillus salivarius. As to the method:
The suspension was further adjusted to 3×10^5 CFU/ml with LSM, and 100 μl were inoculated to wells of microtiter VetMIC plates for lactic acid bacteria (National Veterinary Institute of Sweden, Uppsala, Sweden). The plates were incubated at 37° C. for 48 h and the MIC was defined as the lowest concentration at which no growth was observed.
Parallel, minimum inhibitory concentrations (MICs) were also determined by the E-test (AB BIODISK, Solna, Sweden) following the instructions of the manufacturer. Briefly, after overnight incubation, agar cultures were checked for purity. For inoculums preparation, individual colonies were suspended in a sterile glass culture tube containing 5 ml sterile saline (0.85% NaCl solution) until a density corresponding to a McFarland (McF) standard of 0.5 was obtained. A sterile cotton swab was dipped into the standardized inoculum and used to inoculate an agar plate. Inoculated plates were allowed to dry for approximately 15 min before application of the E-test strips with preformed antimicrobial gradients. […] For bacteriostatic agents (e.g., tetracycline, erythromycin and clindamycin), the MIC was read at the point where growth was inhibited by 80% (i.e., the first point of significant inhibition as judged by the naked eye).
Results from the different antibiotic susceptibility tests were interpreted according to the cut-off levels proposed by the European Food Safety Authority (EFSA, 2012).
For `CN[C@H](CC(C)C)C(=O)N[C@H]1C(=O)N[C@@H](CC(N)=O)C(=O)N[C@H]2C(=O)N[C@H]3C(=O)N[C@H](C(=O)N[C@H](C(=O)O)c4cc(O)cc(O)c4-c4cc3ccc4O)[C@H](O)c3ccc(c(Cl)c3)Oc3cc2cc(c3O[C@@H]2O[C@H](CO)[C@@H](O)[C@H](O)[C@H]2O[C@H]2C[C@](C)(N)[C@H](O)[C@H](C)O2)Oc2ccc(cc2Cl)[C@H]1O` [Vancomycin], the “antibiotic susceptibility of L. salivarius PS7 according to EFSA cut-off levels” value is “intrinsically resistant”.

The same test, now with this note: Ligilactobacillus salivarius, PS7, read-out: MICs (L. salivarius PS7).
With `NC[C@H]1O[C@H](O[C@H]2[C@H](O)[C@@H](O[C@H]3O[C@H](CO)[C@@H](O)[C@H](N)[C@H]3O)[C@H](N)C[C@@H]2N)[C@H](O)[C@@H](O)[C@@H]1O` [Kanamycin], the MIC was 128 µg/mL (≈ 264 µM).

`CC[C@H]1OC(=O)[C@H](C)[C@@H](O[C@H]2C[C@@](C)(OC)[C@@H](O)[C@H](C)O2)[C@H](C)[C@@H](O[C@@H]2O[C@H](C)C[C@H](N(C)C)[C@H]2O)[C@](C)(O)C[C@@H](C)C(=O)[C@H](C)[C@@H](O)[C@]1(C)O` [Erythromycin]: the MIC came out at 0.12 µg/mL (≈ 0.164 µM).

For the compound `CC(=O)NC[C@H]1CN(c2ccc(N3CCOCC3)c(F)c2)C(=O)O1` [Linezolid], the MIC is 1 µg/mL (≈ 2.96 µM).

Turning to `CCC[C@@H]1C[C@@H](C(=O)N[C@@H]([C@H]2O[C@H](SC)[C@H](O)[C@@H](O)[C@H]2O)[C@H](C)Cl)N(C)C1` [Clindamycin], the MIC came to 0.5 µg/mL (≈ 1.18 µM).

For `[H]/N=C(/N)N[C@H]1[C@H](O)[C@@H](O)[C@H](O[C@@H]2O[C@@H](C)[C@](O)(C=O)[C@H]2O[C@@H]2O[C@@H](CO)[C@H](O)[C@@H](O)[C@@H]2NC)[C@@H](N/C(N)=N\[H])[C@@H]1O` [Streptomycin], the MIC came to 32 µg/mL (≈ 55 µM).

`O=C(N[C@H](CO)[C@H](O)c1ccc([N+](=O)[O-])cc1)C(Cl)Cl` [Chloramphenicol]: the MIC came out at 2 µg/mL (≈ 6.19 µM).

As to `CN[C@H](CC(C)C)C(=O)N[C@H]1C(=O)N[C@@H](CC(N)=O)C(=O)N[C@H]2C(=O)N[C@H]3C(=O)N[C@H](C(=O)N[C@H](C(=O)O)c4cc(O)cc(O)c4-c4cc3ccc4O)[C@H](O)c3ccc(c(Cl)c3)Oc3cc2cc(c3O[C@@H]2O[C@H](CO)[C@@H](O)[C@H](O)[C@H]2O[C@H]2C[C@](C)(N)[C@H](O)[C@H](C)O2)Oc2ccc(cc2Cl)[C@H]1O` [Vancomycin], the MIC was over 128 µg/mL.

With `CC1(C)S[C@@H]2[C@H](NC(=O)[C@H](N)c3ccccc3)C(=O)N2[C@H]1C(=O)O` [Ampicillin], the MIC stood at 0.5 µg/mL (≈ 1.43 µM).

The same test, now with this note: antibiotic against L. salivarius PS7.
As to `CN(C)[C@@H]1C(=O)C(C(N)=O)=C(O)[C@@]2(O)C(=O)C3=C(O)c4c(O)cccc4[C@@](C)(O)[C@H]3C[C@@H]12` [Tetracyclin], the “MICs (L. salivarius PS7)” value stood at 2 µg/mL.

As for Gentamicin, the “MICs (L. salivarius PS7)” value amounted to 0.12 µg/mL.

On to Penicillin, for which the “MICs (L. salivarius PS7)” value is 0.25 µg/mL.
